US7469185B2, “Primary rat hepatocyte toxicity modeling” (Ocimum Biosolutions, Inc., priority 2002, dated 2008)

Columns and labels:
primary rat hepatocytes = test: AlamarBlue cell viability assay; conditions: 24 hours
Protocol: (§1) Identification of toxicity markers was performed by microarray analysis and by the AlamarBlue® assay, a classical measure of cytotoxicity. The AlamarBlue® assay was performed in triplicate.
(§2) The source of the primary rat hepatocytes was Sprague Dawley Outbred CDs Rats (CRL:CD®[SD] IGS BR, Charles River Laboratories). […] Primary rat hepatocytes were received the day after the cells were removed from the animals. After arrival, the cells, the cells were incubated overnight (˜15 hrs) before the toxin was added to the cultures. […] Toxin or vehicle was administered to hepatocyte cultures as follows. For each treatment, i.e., vehicle alone, vehicle+toxin at low dose, or vehicle+toxin at high dose, cells were harvested after 3, 6 and 24-hour incubations with the toxin solution or with the vehicle.
(§3) The AlamarBlue® assay was performed as follows, using only the 24-hour time point samples. • 1. […] The culture medium (HIM) was removed from each well and replaced with 500 μl of fresh HIM following arrival of the cells, and the cells were incubated overnight (approximately 15 hrs) at 37° C., 5% CO2. • 3. The next day, the HIM was removed and 500 μl of the medium containing either vehicle or a dose of toxin was added. • 4. Lysis solution was used as a negative control. 450 μl medium+50 μl 9% Triton X100 were added to each of 3 wells containing cells, for a final Triton concentration of 1%. • 5. The cells in all wells were incubated for 24 hours at 37° C., 5% CO2. • 6. HIM medium was removed, and a solution containing 500 μl of fresh HIM medium+50 μl AlamarBlue® (BioSource International, Inc., Cat. No. DAL1100) was added to each well. • 7. The cells were incubated at 37° C., 5% CO2 for 2 hours. • 8. 100 μl medium was removed from each well of the 24-well plate and added to a well of a 96-well plate. […] Alternatively, two absorbance readings can be measured for the oxidized (600 nm) and the reduced (570 nm) form of AlamarBlueg. After obtaining absorbance readings, results were calculated according to the manufacturer's protocol provided in the product description. • 9. The data were evaluated to determine whether or not the toxin reduced cell viability. If so, the dose of the toxin that reduced cell viability by ˜10-20% was determined. Collection of RNA from Rat Hepatocytes

[1] = AlamarBlue cell viability assay; conditions: male, Sprague-Dawley, rat
Protocol: as §1, §2, §3

rats [2] = test: AY-25329 14 day rat study: serum chemistry and light microscopy; assay type: in vivo
From the text: The present inventors have noted indications of liver and renal effects of AY-25329 by changes in serum chemistry. […] Most of these markers of renal and liver dysfunction remained altered throughout the 14 day study period.

[3] = test system: male Sprague Dawley (SD) rats; conditions: within 48 hours post dose; 0.1, 1, 2, 3, 4 mL/kg ip; […] po; cited from earlier work
patients [4] = conditions: 180 reported cases; cited from earlier work
rats [5] = test: Lovastatin dosing of rats, liver tissue examination; assay type: in vivo, rat
[6] = oral doses; cited from earlier work
patients [7] = conditions: human, in vivo; cited from earlier work

In the case of `C#C[C@]1(O)CC[C@H]2[C@@H]3CCc4cc(O)ccc4[C@H]3CC[C@@]21C` [17α-ethinylestradiol], the “% viability by AlamarBlue test” value (primary rat hepatocytes; high dose 100 uM) was roughly 80% and the “% viability by AlamarBlue test” value (primary rat hepatocytes; low dose 10 uM) was roughly 100%.
For `S=C=Nc1cccc2ccccc12` [ANIT, α-naphthylisothiocyanate], the viability at 24 h, 25 uM [1] was roughly 100% and the viability at 24 h, 250 uM [1] was roughly 60%.
For `O=C(CCN1CCN2CCCC2C1)N1c2ccccc2Sc2ccc(Cl)cc21` (stereo not shown) [AY-25329], the “light microscopic analysis, effects in the liver” value (rats [2]; 6 and 24 hours) was “increased number of hepatocytic mitotic figures and decreased glycogen content”, the “findings after repeated dosing” value (rats [2]; 14 days of repeated dosing, 250 mg/kg/day) was “nephrosis and alterations in the peripheral lobes of the liver and in the cytoplasm of hepatocytes” and the “serum levels of creatinine, BUN, ALT, triglycerides and cholesterol” value (rats [2]; as early as 6 hours after the first dose) was “statistically significant increases”. For the same compound, the viability at 24 h, 5 uM [1] was roughly 100% and the viability at 24 h, 50 uM [1] was roughly 90%.
In the case of `ClC(Cl)(Cl)Cl` [CCl4, carbon tetrachloride], the viability at 24 h, 0.1 mM [1] is given as roughly 100%, the viability at 24 h, 10 mM [1] is given as 80 to 85% and the “ALT and AST peak levels, fold increases” value [3] is given as 5-10 fold.
Compound `NC(=O)N1c2ccccc2C=Cc2ccccc21` [Carbamazepine] has a viability at 24 h, 0.01 mM [1] of roughly 100% and a viability at 24 h, 1 mM [1] of roughly 90%.
For `CN(C)CCCN1c2ccccc2Sc2ccc(Cl)cc21` [Chlorpromazine], the viability at 24 h, 3 uM [1] was roughly 100%.
Compound `CCOC(=O)C(C)(C)Oc1ccc(Cl)cc1` [Clofibrate] has a viability at 24 h, 0.5 mM [1] of roughly 100% and a viability at 24 h, 5 mM [1] of 80 to 85%.
`CC(=O)O[C@]1(C(C)=O)CC[C@H]2[C@@H]3C=C(Cl)C4=CC(=O)[C@@H]5C[C@@H]5[C@]4(C)[C@H]3CC[C@@]21C` [Cyproterone acetate] showed a viability at 24 h, 40 uM [1] of roughly 100% and a viability at 24 h, 400 uM [1] of 65 to 70%.
In the case of `CN(C)N=O` [DMN, dimethylnitrosamine], the “% viability by AlamarBlue test” value (primary rat hepatocytes; high dose 100 mM) was ~80-85% and the “% viability by AlamarBlue test” value (primary rat hepatocytes; low dose 1 mM) was roughly 100%.
For `O=C(O)Cc1ccccc1Nc1c(Cl)cccc1Cl` [Diclofenac], the viability at 24 h, 55 uM [1] is listed as roughly 100%, the viability at 24 h, 550 uM [1] is listed as roughly 70% and the “jaundice, share of the symptomatic patients” value (patients [4]) is listed as 75%.
`O=C(O)c1cc(-c2ccc(F)cc2F)ccc1O` [Diflunisal] showed a viability at 24 h, 30 uM [1] of roughly 100% and a viability at 24 h, 300 uM [1] of 85 to 90%.
Work on `Cc1ccc(C)c(OCCCC(C)(C)C(=O)O)c1` [Gemfibrozil, gemfibrozil] yielded a viability at 24 h, 0.3 mM [1] of roughly 100% and a viability at 24 h, 3 mM [1] of roughly 50%.
Compound `NN` [Hydrazine] has a viability at 24 h, 0.1 mM [1] of 90 to 95% and a viability at 24 h, 1 mM [1] of 80 to 85%.
Work on `COc1ccc2c(c1)c(CC(=O)O)c(C)n2C(=O)c1ccc(Cl)cc1` [Indomethacin] yielded a viability at 24 h, 0.1 mM [1] of roughly 100% and a viability at 24 h, 1 mM [1] of 85 to 90%.
In the case of `CC[C@H](C)C(=O)O[C@H]1C[C@@H](C)C=C2C=C[C@H](C)[C@H](CC[C@@H]3C[C@@H](O)CC(=O)O3)[C@H]21` [Lovastatin], the viability at 24 h, 0.1 mM [1] was roughly 100%, the viability at 24 h, 1 mM [1] was roughly 100% and the “effects in liver tissue” value (rats [5]; 9 or 90 mg/kg twice a day, after 6 or after 24 hours) was “no effects were noted”. For the same compound, the “effects in liver cells” value (rats [5]; after 14 days of treatment at the higher dosage (90 mg/kg twice a day)) was “abnormal vacuolization of the cytoplasm” and the “metabolites excreted in the urine” value [6] was “less than 13%”.
Work on `CN(Cc1cnc2nc(N)nc(N)c2n1)c1ccc(C(=O)N[C@@H](CCC(=O)O)C(=O)O)cc1` [Methotrexate] yielded a viability at 24 h, 1 mM [1] of roughly 100% and a viability at 24 h, 10 mM [1] of roughly 90%.
In the case of `CCC1(c2ccccc2)C(=O)NC(=O)NC1=O` [Phenobarbital], the viability at 24 h, 0.8 mM [1] was roughly 100% and the viability at 24 h, 8 mM [1] was greater than 95%.
For `CC/C(=C(\c1ccccc1)c1ccc(OCCN(C)C)cc1)c1ccccc1` [Tamoxifen], the viability at 24 h, 4 uM [1] was roughly 100% and the viability at 24 h, 40 uM [1] was roughly 45%.
In the case of `CN(C)[C@@H]1C(O)=C(C(N)=O)C(=O)[C@@]2(O)C(O)=C3C(=O)c4c(O)cccc4[C@@](C)(O)[C@H]3C[C@@H]12` [Tetracycline], the viability at 24 h, 0.1 mM [1] was roughly 100% and the viability at 24 h, 1 mM [1] was 85 to 90%.
For `CCCC(CCC)C(=O)O` [Valproate, n-dipropylacetic acid], the viability at 24 h, 0.4 mg/ml [1] is listed as roughly 100% and the “patients with elevated levels of hepatic enzymes” value (patients [7]) is listed as “about 40%”.
For `Cc1cccc(Nc2cc(Cl)nc(SCC(=O)O)n2)c1C` [Wy-14643], the viability at 24 h, 10 uM [1] was roughly 100% and the viability at 24 h, 100 uM [1] was roughly 90%.
